# Several values for one entry are separate records, joined by “and”; a condition that tells them apart may be missing. Equal values may be shown once.
# Columns and labels:
# [1] = test system: Brassica napus var. napobrassica (rutabaga, BRSNA); experiment: Greenhouse postemergence application, visual injury after 20-22 d, BRSNA
# Method: (§1) Seeds of the desired test plant species were planted in Sun Gro MetroMix® 306 planting mixture, which typically has a pH of 6.0 to 6.8 and an organic matter content of about 30 percent, in plastic pots with a surface area of 103.2 square centimeters (cm^2). […] The plants were grown for 7-36 days (d) in a greenhouse with an approximate 14-hour (h) photoperiod which was maintained at about 23° C. during the day and 22° C. during the night. Nutrients and water were added on a regular basis and supplemental lighting was provided with overhead metal halide 1000-Watt lamps as necessary. The plants were employed for testing when they reached the second or third true leaf stage.
# (§2) An aliquot of formulated benzyl 4-amino-3-chloro-6-(4-chloro-2-fluoro-3-methoxyphenyl)-5-fluoropyridine-2-carboxylate (florpyrauxifen-benzyl; 300 grams active ingredient per liter (g ai/L) suspension concentrate (SC)) was placed in a 25 mL glass vial and diluted in a volume of 1.25% (v/v) aqueous Agri-dex crop oil concentrated to obtain a stock solution. […] The concentrated stock solutions were diluted with an aqueous mixture of 1.25% v/v of aqueous Agri-dex crop oil concentrate to provide the appropriate application rates. Compound requirements are based upon a 12 milliliter (mL) application volume at a rate of 187 liters per hectare (L/ha). Stock solutions of the formulated materials were prepared following the same procedure. Spray solutions of the compound mixtures were prepared by adding the stock solutions to the appropriate amount of dilution solution to form a 12 mL spray solution. Formulated compounds were applied to the plant material with an overhead Mandel track sprayer equipped with 8002E nozzles calibrated to deliver 187 L/ha over an application area of 0.503 square meters (m^2) at a spray height of 18 inches (43 centimeters (cm)) above average plant canopy. Control plants were sprayed in the same manner with the solvent blank.
# (§3) The treated plants and control plants were placed in a greenhouse as described above and watered by sub-irrigation to prevent wash-off of the test compounds. After 20-22 d, the condition of the test plants as compared with that of the control plants was determined visually and scored on a scale of 0 to 100 percent where 0 corresponds to no injury and 100 corresponds to complete kill. Colby's equation was used to determine the herbicidal effects expected from the mixtures.
# (§4) Benzyl 4-amino-3-chloro-6-(4-chloro-2-fluoro-3-methoxyphenyl)-5-fluoropyridine-2-carboxylate (florpyrauxifen-benzyl, 300 g ai/L SC) was combined in two-, three-, and four-way mixtures with one or more of the following: clopyralid-olamine (as Lontrel™ 35A Herbicidal Concentrate), quinclorac (as Facet 75DF), isoxadifen-ethyl (100 g/L SC), cloquintocet-mexyl (120 g/L EC) or mefenpyr-diethyl (as mefenpyr-diethyl 15WP). The mixtures were applied to kale/Chinese kale (Brassica alboglabra, BRSAG), Juncea canola or brown mustard (Brassica juncea, BRSJU), rutabaga (Brassica napus var. napobrassica, BRSNA), all varieties of canola and oilseed rape (Brassica napus, BRSNN), Nexera™ canola (Brassica napus, BRSNN-NEX), winter oilseed rape (Brassica napus, BRSNW), Roundup Ready® canola (Brassica napus, RR-BRSNN), and turnip or Polish canola (Brassica rapa, BRSRR), and the phytotoxicity of the compositions was measured.
# (§5) Colby's equation was used to determine the herbicidal effects expected from the mixtures evaluated in the described trials (Colby, S. R. Calculation of the synergistic and antagonistic response of herbicide combinations. Weeds 1967, 15, 20-22.).
# (§6) The following equation was used to calculate the expected activity of mixtures containing two active ingredients, A and B: Expected=A+B−(A×B/100) • A=observed efficacy of active ingredient A at the same concentration as used in the mixture; • B=observed efficacy of active ingredient B at the same concentration as used in the mixture.
# [2] = test system: Brassica napus (winter oilseed rape, BRSNW); experiment: Greenhouse postemergence application, visual injury after 20-22 d, BRSNW
# Method: as §1, §2, §3, §4, §5, §6
# [3] = test system: Brassica napus (Roundup Ready canola, RR-BRSNN); experiment: Greenhouse postemergence application, visual injury after 20-22 d, RR-BRSNN
# Method: as §1, §2, §3, §4, §5, §6
# [4] = florpyrauxifen-benzyl 2.5 g ai/ha alone
# [5] = florpyrauxifen-benzyl 5 g ai/ha alone
# [6] = florpyrauxifen-benzyl 10 g ai/ha alone
# [7] = florpyrauxifen-benzyl alone 2.5 g ai/ha
# [8] = florpyrauxifen-benzyl alone 5 g ai/ha
# [9] = florpyrauxifen-benzyl alone 10 g ai/ha
# [10] = postemergence application, greenhouse, application rate (g ai/ha) varies
# [11] = isoxadifen-ethyl 5 g ai/ha alone
# [12] = isoxadifen-ethyl 10 g ai/ha alone
# [13] = isoxadifen-ethyl 20 g ai/ha alone
# [14] = isoxadifen-ethyl 40 g ai/ha alone
compound,measurement,setting,value
"COc1c(Cl)ccc(-c2nc(C(=O)OCc3ccccc3)c(Cl)c(N)c2F)c1F [Florpyrauxifen-benzyl, benzyl 4-amino-3-chloro-6-(4-chloro-2-fluoro-3-methoxyphenyl)-5-fluoropyridine-2-carboxylate]",% Visual Injury Obs,"[1]; BRSNA, 2.5 g ai/ha",4%
same,% Visual Injury Obs,"[1]; BRSNA, 5 g ai/ha",4%
same,% Visual Injury Obs,"[1]; BRSNA, 10 g ai/ha",13%
same,Obs % visual injury,"[1]; BRSNA, florpyrauxifen-benzyl alone 2.5 g ai/ha",4%
same,Obs % visual injury,"[1]; BRSNA, florpyrauxifen-benzyl alone 5 g ai/ha",4%
same,Obs % visual injury,"[1]; BRSNA, florpyrauxifen-benzyl alone 10 g ai/ha",13%
same,% Visual Injury BRSNA Obs,[1]; [4],4%
same,% Visual Injury Obs,[1]; [4],4%
same,% Visual Injury BRSNA Obs,[1]; [5],4%
same,% Visual Injury Obs,[1]; [5],4%
same,% Visual Injury BRSNA Obs,[1]; [6],13%
same,% Visual Injury Obs,[1]; [6],13%
same,Obs % visual injury BRSNA,[1]; [7],4%
same,Obs % visual injury BRSNA,[1]; [8],4%
same,Obs % visual injury BRSNA,[1]; [9],13%
same,% Visual Injury BRSNA Obs,[1]; [10],4% and 13%
same,% Visual Injury Obs,"[2]; BRSNW, 2.5 g ai/ha",8%
same,% Visual Injury Obs,"[2]; BRSNW, 5 g ai/ha",13%
same,% Visual Injury Obs,"[2]; BRSNW, 10 g ai/ha",18%
same,Obs % visual injury,"[2]; BRSNW, florpyrauxifen-benzyl alone 2.5 g ai/ha",8%
same,Obs % visual injury,"[2]; BRSNW, florpyrauxifen-benzyl alone 5 g ai/ha",13%
same,Obs % visual injury,"[2]; BRSNW, florpyrauxifen-benzyl alone 10 g ai/ha",18%
same,% Visual Injury BRSNW Obs,[2]; [4],8%
same,% Visual Injury Obs,[2]; [4],8%
same,% Visual Injury BRSNW Obs,[2]; [5],13%
same,% Visual Injury Obs,[2]; [5],13%
same,% Visual Injury BRSNW Obs,[2]; [6],18%
same,% Visual Injury Obs,[2]; [6],18%
same,Obs % visual injury BRSNW,[2]; [7],8%
same,Obs % visual injury BRSNW,[2]; [8],13%
same,Obs % visual injury BRSNW,[2]; [9],18%
same,% Visual Injury BRSNW Obs,[2]; [10],8% and 13% and 18%
same,% Visual Injury Obs,"[3]; RR-BRSNN, 2.5 g ai/ha",6%
same,% Visual Injury Obs,"[3]; RR-BRSNN, 5 g ai/ha",9%
same,% Visual Injury Obs,"[3]; RR-BRSNN, 10 g ai/ha",19%
same,Obs % visual injury,"[3]; RR-BRSNN, florpyrauxifen-benzyl alone 2.5 g ai/ha",6%
same,Obs % visual injury,"[3]; RR-BRSNN, florpyrauxifen-benzyl alone 5 g ai/ha",9%
same,Obs % visual injury,"[3]; RR-BRSNN, florpyrauxifen-benzyl alone 10 g ai/ha",19%
same,% Visual Injury Obs,[3]; [4],6%
same,% Visual Injury RR-BRSNN Obs,[3]; [4],6%
same,% Visual Injury Obs,[3]; [5],9%
same,% Visual Injury RR-BRSNN Obs,[3]; [5],9%
same,% Visual Injury Obs,[3]; [6],19%
same,% Visual Injury RR-BRSNN Obs,[3]; [6],19%
same,Obs % visual injury RR-BRSNN,[3]; [7],6%
same,Obs % visual injury RR-BRSNN,[3]; [8],9%
same,Obs % visual injury RR-BRSNN,[3]; [9],19%
"CCOC(=O)C1=NOC(c2ccccc2)(c2ccccc2)C1 [Isoxadifen-ethyl, ethyl 4,5-dihydro-5,5-diphenyl-1,2-oxazole-3-carboxyalte]",% Visual Injury Obs,"[1]; BRSNA, 5 g ai/ha",0%
same,% Visual Injury Obs,"[1]; BRSNA, 10 g ai/ha",0%
same,% Visual Injury Obs,"[1]; BRSNA, 20 g ai/ha",0%
same,% Visual Injury Obs,"[1]; BRSNA, 40 g ai/ha",0%
same,Obs % visual injury,"[1]; BRSNA, partner alone 5 g ai/ha",0%
same,Obs % visual injury,"[1]; BRSNA, partner alone 10 g ai/ha",0%
same,Obs % visual injury,"[1]; BRSNA, partner alone 20 g ai/ha",0%
same,Obs % visual injury,"[1]; BRSNA, partner alone 40 g ai/ha",0%
same,% Visual Injury Obs,[1]; [11],0%
same,% Visual Injury Obs,[1]; [12],0%
same,% Visual Injury Obs,[1]; [13],0%
same,% Visual Injury Obs,[1]; [14],0%
same,% Visual Injury BRSNA Obs,[1]; [10],0%
same,% Visual Injury Obs,"[2]; BRSNW, 5 g ai/ha",0%
same,% Visual Injury Obs,"[2]; BRSNW, 10 g ai/ha",0%
same,% Visual Injury Obs,"[2]; BRSNW, 20 g ai/ha",0%
same,% Visual Injury Obs,"[2]; BRSNW, 40 g ai/ha",0%
same,Obs % visual injury,"[2]; BRSNW, partner alone 5 g ai/ha",0%
same,Obs % visual injury,"[2]; BRSNW, partner alone 10 g ai/ha",0%
same,Obs % visual injury,"[2]; BRSNW, partner alone 20 g ai/ha",0%
same,Obs % visual injury,"[2]; BRSNW, partner alone 40 g ai/ha",0%
same,% Visual Injury Obs,[2]; [11],0%
same,% Visual Injury Obs,[2]; [12],0%
same,% Visual Injury Obs,[2]; [13],0%
same,% Visual Injury Obs,[2]; [14],0%
same,% Visual Injury BRSNW Obs,[2]; [10],0%
same,% Visual Injury Obs,"[3]; RR-BRSNN, 5 g ai/ha",0%
same,% Visual Injury Obs,"[3]; RR-BRSNN, 10 g ai/ha",0%
same,% Visual Injury Obs,"[3]; RR-BRSNN, 20 g ai/ha",0%
same,% Visual Injury Obs,"[3]; RR-BRSNN, 40 g ai/ha",0%
same,Obs % visual injury,"[3]; RR-BRSNN, partner alone 5 g ai/ha",0%
same,Obs % visual injury,"[3]; RR-BRSNN, partner alone 10 g ai/ha",0%
same,Obs % visual injury,"[3]; RR-BRSNN, partner alone 20 g ai/ha",0%
same,Obs % visual injury,"[3]; RR-BRSNN, partner alone 40 g ai/ha",0%
same,% Visual Injury Obs,[3]; [11],0%
same,% Visual Injury Obs,[3]; [12],0%
same,% Visual Injury Obs,[3]; [13],0%
same,% Visual Injury Obs,[3]; [14],0%
same,% Visual Injury RR-BRSNN Obs,[3]; [10],0%

# Reference: patent US10219513B2, “Safening 4-amino-3-chloro-6-(4-chloro-2-fluoro-3-methoxyphenyl)-5-fluoropyridine-2-carboxylic acid compositions in Brassica species and methods of use thereof” (Dow AgroSciences LLC, priority 2016, dated 2019)
